Test results published in BindingDB's records for doi:10.3109/14756360903179377 (Graduate University of Chinese Academy of Sciences, 2010).

target: Fatty acid synthase (Gallus gallus, UniProt P12276); assay: FAS Activity Assay; details: pH 7; 37 °C
Experimental: FAS activity was determined by monitoring the decrease in absorbence at 340 nm resulting from the oxidation of NADPH using an Amersham Pharmacia Ultrospec 4300 pro UV-Vis spectrophotometer at 37°C. The assay mixture contained 100 mM potassium phosphate buffer, pH 7.0, 1 mM EDTA (ethylenediaminetetraacetic acid), 2.5 μM acetyl-CoA, 10 μM malonyl-CoA, 32 μM NADPH, and 10 μg chicken liver FAS in a total volume of 2.0 mL [Tian et al., J. Biol. Chem., 260:11375-87]. Fast inhibition was determined by adding thioether to the reaction system before FAS initiated the reaction. The initial velocity was measured to calculate the remaining activity (RA) of FAS, and each assay was repeated three times.

Fatty acid synthase, sequence (P12276 whole entry): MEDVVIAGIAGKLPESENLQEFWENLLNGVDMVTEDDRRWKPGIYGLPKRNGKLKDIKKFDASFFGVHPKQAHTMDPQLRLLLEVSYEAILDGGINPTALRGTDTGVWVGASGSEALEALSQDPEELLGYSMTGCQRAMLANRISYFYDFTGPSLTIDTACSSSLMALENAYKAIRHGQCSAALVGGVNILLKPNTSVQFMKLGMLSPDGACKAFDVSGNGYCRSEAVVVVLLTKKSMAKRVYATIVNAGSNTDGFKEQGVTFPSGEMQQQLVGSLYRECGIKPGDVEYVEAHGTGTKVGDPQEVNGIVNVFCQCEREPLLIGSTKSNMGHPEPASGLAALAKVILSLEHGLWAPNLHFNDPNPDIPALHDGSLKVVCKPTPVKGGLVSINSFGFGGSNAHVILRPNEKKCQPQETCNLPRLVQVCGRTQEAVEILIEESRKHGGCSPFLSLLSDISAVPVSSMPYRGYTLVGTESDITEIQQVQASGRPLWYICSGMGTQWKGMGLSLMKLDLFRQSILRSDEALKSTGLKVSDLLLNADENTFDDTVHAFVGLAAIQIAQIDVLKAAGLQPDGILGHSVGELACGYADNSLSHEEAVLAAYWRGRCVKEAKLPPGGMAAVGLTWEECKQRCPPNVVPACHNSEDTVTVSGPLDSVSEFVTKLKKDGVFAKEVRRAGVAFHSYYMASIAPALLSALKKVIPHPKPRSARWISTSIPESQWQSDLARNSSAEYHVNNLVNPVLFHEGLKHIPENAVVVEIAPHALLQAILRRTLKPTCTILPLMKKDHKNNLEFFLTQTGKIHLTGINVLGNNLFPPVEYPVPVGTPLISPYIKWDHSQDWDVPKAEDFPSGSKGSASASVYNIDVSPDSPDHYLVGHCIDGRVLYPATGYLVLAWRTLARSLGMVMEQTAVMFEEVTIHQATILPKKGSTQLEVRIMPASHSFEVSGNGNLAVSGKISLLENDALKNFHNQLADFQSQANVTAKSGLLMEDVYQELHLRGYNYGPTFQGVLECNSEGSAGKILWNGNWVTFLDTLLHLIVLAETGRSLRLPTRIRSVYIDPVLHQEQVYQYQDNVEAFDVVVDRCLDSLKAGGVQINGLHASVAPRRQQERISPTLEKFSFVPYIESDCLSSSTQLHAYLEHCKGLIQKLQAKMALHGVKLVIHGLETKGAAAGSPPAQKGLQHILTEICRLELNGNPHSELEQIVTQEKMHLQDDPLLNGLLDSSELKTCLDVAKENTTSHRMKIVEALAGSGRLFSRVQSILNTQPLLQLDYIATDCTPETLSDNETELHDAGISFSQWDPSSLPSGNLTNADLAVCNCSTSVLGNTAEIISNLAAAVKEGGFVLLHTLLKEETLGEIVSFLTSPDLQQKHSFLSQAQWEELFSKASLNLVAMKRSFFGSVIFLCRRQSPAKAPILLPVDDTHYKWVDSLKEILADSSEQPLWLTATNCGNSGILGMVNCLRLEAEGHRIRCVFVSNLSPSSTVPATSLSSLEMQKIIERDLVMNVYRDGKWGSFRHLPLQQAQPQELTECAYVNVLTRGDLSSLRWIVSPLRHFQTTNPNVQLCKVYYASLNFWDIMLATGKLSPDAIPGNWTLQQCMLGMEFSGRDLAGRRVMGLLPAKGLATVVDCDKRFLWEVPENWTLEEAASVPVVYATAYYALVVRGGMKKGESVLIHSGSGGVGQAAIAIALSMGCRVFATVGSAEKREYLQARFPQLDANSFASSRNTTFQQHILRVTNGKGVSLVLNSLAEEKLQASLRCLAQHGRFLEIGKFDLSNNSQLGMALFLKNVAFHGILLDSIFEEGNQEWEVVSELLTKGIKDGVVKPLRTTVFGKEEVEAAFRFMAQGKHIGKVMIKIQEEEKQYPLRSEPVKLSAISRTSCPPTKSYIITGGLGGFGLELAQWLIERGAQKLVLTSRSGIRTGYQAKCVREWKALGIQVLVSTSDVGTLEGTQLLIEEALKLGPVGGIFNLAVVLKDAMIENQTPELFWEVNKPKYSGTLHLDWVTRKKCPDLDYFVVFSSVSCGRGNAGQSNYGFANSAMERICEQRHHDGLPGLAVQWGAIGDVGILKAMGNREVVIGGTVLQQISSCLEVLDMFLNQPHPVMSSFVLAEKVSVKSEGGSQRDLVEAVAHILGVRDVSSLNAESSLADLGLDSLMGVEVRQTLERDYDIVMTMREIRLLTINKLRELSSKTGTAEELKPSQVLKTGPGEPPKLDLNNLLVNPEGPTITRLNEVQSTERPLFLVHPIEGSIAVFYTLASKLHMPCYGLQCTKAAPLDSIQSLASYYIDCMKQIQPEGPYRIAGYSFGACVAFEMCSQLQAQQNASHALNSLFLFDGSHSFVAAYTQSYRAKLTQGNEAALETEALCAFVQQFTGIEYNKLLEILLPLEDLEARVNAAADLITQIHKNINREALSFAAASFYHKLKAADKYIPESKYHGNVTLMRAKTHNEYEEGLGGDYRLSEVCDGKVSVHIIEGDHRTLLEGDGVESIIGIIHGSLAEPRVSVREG

| SMILES | IC50 [µM] |
| --- | --- |
| C=CCSSCC=C [3-Allyldisulfanyl-propene] | 145 |
| C=CCSSSCC=C [Diallyl trisulfide] | 8.37 |
| CSSC [Dimethyl disulfide] | 2210 |
